Experimental findings from ChEMBL document CHEMBL1909514, “Imidazo[2,1-b]thiazole guanylhydrazones as RSK2 inhibitors” (Eur J Med Chem, 2011) are described below.

Assay [1] has as its target T1, Aurora kinase A (Homo sapiens) (UniProt O14965).
T1 sequence (whole entry): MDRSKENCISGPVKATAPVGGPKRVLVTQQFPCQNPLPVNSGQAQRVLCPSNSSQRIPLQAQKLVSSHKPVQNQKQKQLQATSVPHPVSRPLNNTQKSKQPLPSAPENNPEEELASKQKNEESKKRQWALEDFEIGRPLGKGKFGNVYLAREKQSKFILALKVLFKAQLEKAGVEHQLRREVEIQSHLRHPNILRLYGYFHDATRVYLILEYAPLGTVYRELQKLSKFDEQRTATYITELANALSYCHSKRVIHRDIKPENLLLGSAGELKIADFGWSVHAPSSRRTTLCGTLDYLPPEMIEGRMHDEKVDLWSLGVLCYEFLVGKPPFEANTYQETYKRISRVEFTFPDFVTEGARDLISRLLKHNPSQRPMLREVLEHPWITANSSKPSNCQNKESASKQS
Nature of the assay: Inhibition of Aurora kinase A assessed as inhibition of substrate phosphorylation using fluorescent peptide substrate up to 100 uM by microplate reader assay.

Assay [2] has as its target Serine/threonine-protein kinase Chk2 (Homo sapiens, UniProt O96017).
Description: Inhibition of CHK2 assessed as inhibition of substrate phosphorylation using fluorescent peptide substrate by microplate reader assay
Assay [3] has as its target Ribosomal protein S6 kinase alpha-3 (Homo sapiens, UniProt P51812).
Description: Inhibition of RSK2 assessed as inhibition of substrate phosphorylation using fluorescent peptide substrate by microplate reader assay

Each structure is given as a SMILES string. Calls of active or inactive are those of the source. The rule behind the calls is not given here.

Chain of Ribosomal protein S6 kinase alpha-3 (P51812 whole entry): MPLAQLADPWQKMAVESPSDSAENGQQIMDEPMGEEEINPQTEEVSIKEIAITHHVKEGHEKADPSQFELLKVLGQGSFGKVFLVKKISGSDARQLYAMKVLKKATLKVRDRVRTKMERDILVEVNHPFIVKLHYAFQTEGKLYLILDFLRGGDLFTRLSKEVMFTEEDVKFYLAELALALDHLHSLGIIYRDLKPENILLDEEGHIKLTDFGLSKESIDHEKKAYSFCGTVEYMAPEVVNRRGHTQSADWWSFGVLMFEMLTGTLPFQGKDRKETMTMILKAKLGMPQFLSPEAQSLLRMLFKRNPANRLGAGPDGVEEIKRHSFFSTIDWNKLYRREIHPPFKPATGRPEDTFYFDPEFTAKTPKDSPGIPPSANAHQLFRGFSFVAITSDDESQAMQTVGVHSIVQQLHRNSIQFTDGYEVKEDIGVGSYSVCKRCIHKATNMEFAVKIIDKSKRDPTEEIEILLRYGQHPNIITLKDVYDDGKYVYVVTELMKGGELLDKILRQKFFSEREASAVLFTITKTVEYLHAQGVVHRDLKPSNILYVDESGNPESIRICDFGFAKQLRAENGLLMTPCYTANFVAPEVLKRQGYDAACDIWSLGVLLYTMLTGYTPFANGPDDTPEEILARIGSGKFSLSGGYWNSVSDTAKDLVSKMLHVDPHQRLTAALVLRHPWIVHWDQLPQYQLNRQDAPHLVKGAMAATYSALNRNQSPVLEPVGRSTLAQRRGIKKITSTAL
Chain of Serine/threonine-protein kinase Chk2 (O96017 whole entry): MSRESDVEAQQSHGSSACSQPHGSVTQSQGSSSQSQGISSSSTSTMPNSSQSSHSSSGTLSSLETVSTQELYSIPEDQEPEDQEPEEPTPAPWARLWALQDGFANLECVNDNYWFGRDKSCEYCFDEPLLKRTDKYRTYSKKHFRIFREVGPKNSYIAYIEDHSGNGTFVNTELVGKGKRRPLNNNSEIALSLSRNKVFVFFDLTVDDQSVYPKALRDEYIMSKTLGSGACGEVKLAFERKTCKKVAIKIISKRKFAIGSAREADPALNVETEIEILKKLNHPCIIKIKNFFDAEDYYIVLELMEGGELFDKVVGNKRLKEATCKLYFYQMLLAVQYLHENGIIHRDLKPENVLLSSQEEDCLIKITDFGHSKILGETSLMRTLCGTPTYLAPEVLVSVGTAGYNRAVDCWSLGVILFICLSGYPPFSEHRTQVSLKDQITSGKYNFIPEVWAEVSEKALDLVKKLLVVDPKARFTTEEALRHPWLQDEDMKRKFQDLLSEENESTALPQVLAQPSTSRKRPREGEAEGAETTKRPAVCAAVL

Turning to `Clc1cc(-c2cn3c(n2)sc2ccccc23)c(Cl)s1`, the inhibition result in assay [1] is “inactive”.
The same measure, in the same setting: to `O=Cc1c(-c2ccc([N+](=O)[O-])cc2)nc2sc(Br)cn12` belongs “inactive”; to `Fc1cccc(F)c1-c1cn2ccsc2n1`, “inactive”; to `O=Cc1c(-c2ccccc2F)nc2sccn12`, “inactive”.
Regarding `O=Cc1c(-c2ccc([N+](=O)[O-])cc2)nc2sc(F)cn12`, the inhibition result in assay [1] was “inactive”.
Broadly, the IC50 is the concentration that gives 50% inhibition. Low values mean greater potency, high ones weaker potency. Turning to `N=C(N)N/N=C\c1c(-c2ccc(F)c(F)c2)nc2sccn12`, the inhibition result in assay [1] was “inactive”. Further, the IC50 in assay [2] and in assay [3] was greater than 100 µM throughout.
For the compound `Fc1ccccc1-c1cn2ccsc2n1`, the inhibition result in assay [1] is “inactive”.
Regarding `Clc1cc(-c2nc3sc4ccccc4n3c2/C=N/NC2=NCCN2)c(Cl)s1`, the inhibition entry in assay [1] is “inactive”. Also, the half-maximal inhibitory concentration (IC50) in assay [2] and in assay [3] was greater than 100 µM in each case.
Consider `O=Cc1c(-c2ccc(F)cc2)nc2sc(Cl)cn12`, for which, in assay [1], the inhibition entry was “inactive”.
`COc1cc([N+](=O)[O-])c(OC)cc1-c1nc2ccccn2c1C=O`: in assay [1], the inhibition result is “inactive”.
The same measure, in the same setting: to `Clc1cc(-c2cn3ccccc3n2)c(Cl)s1` belongs “inactive”.
Take `COc1cc([N+](=O)[O-])c(OC)cc1-c1cn2c(n1)sc1ccccc12`: the inhibition entry in assay [1] was “inactive”.
In the case of `Cc1nn2c(/C=N/NC3=NCCN3)c(-c3ccc(Cl)c([N+](=O)[O-])c3)nc2s1`, the inhibition entry in assay [1] was “inactive”. Further, the IC50 is greater than 20 µM in assay [2] and greater than 100 µM in assay [3].
Regarding `Clc1cc(-c2cn3cc(Cl)sc3n2)c(Cl)s1`, the inhibition result in assay [1] is “inactive”.
Still for that read-out and setting: to `Nc1nn2c(C=O)c(-c3ccccc3)nc2s1` belongs “inactive”; to `Cc1cn2c(C=O)c(-c3ccc(F)cc3)nc2s1`, “inactive”.
With `Cc1nn2c(C=O)c(-c3cc(Cl)sc3Cl)nc2s1`, the inhibition entry in assay [1] is “inactive”.
On the same count and under the same terms, to `Fc1ccc(-c2cn3ccsc3n2)cc1F` belongs “inactive”.
`N#Cc1ccc(-c2nc3sc(Cl)cn3c2C=O)cc1`: the inhibition entry in assay [1] is “inactive”.
The same measure, in the same setting: to `COc1cc([N+](=O)[O-])c(OC)cc1-c1cn2nc(C)sc2n1` belongs “inactive”; to `O=Cc1c(-c2cc(Cl)sc2Cl)nc2ccccn12`, “inactive”; to `O=[N+]([O-])c1cc(-c2cn3ccsc3n2)ccc1F`, “inactive”.
Regarding `N=C(N)N/N=C\c1c(-c2cc(F)c(F)cc2F)nc2sccn12`, the inhibition result in assay [1] is “inactive”. For the same compound, the IC50 in assay [2] and in assay [3] was greater than 100 µM throughout.
For the compound `Cc1cn2cc(-c3ccc(F)cc3)nc2s1`, the inhibition entry in assay [1] is “inactive”.
For `O=[N+]([O-])c1cc(-c2cn3ccsc3n2)ccc1Br`, the inhibition entry in assay [1] was “inactive”.
As for `COc1cc([N+](=O)[O-])c(OC)cc1-c1nc2sc3ccccc3n2c1C=O`, the inhibition entry in assay [1] is “inactive”.
Still for that read-out and setting: to `O=[N+]([O-])c1cc(-c2cn3cc(Cl)sc3n2)ccc1F` belongs “inactive”.
The same measure, in the same setting: to `Cc1nn2cc(-c3cc(Cl)sc3Cl)nc2s1` belongs “inactive”.
On to `Cc1sc2nc(-c3cc([N+](=O)[O-])c(Cl)cc3Cl)c(/C=N/NC(=N)N)n2c1C`, for which the IC50 was greater than 100 µM in assay [2] and 98.5 µM in assay [3].
With `O=[N+]([O-])c1cccc(-c2cn3ccsc3n2)c1F`, in assay [1], the inhibition result is “inactive”.
With `N=C(N)N/N=C\c1c(-c2c(F)cccc2F)nc2sccn12`, in assay [1], the inhibition entry was “inactive”. For the same compound, the IC50 in assay [2] and in assay [3] was greater than 100 µM each time.
In the case of `O=Cc1c(-c2cc(Cl)sc2Cl)nc2sc(Cl)cn12`, in assay [1], the inhibition entry was “inactive”.
On the same count and under the same terms, to `O=Cc1c(-c2ccc(F)c([N+](=O)[O-])c2)nc2sccn12` belongs “inactive”.
Regarding `N=C(N)N/N=C\c1c(-c2ccccc2F)nc2sccn12`, the inhibition entry in assay [1] was “inactive”. Moreover, the IC50 in assay [2] and in assay [3] was greater than 100 µM each time.
As to `N=C(N)N/N=C/c1c(-c2ccccc2)nc2sc(Cl)cn12`, the inhibition entry in assay [1] was “inactive”. In addition, the IC50 in assay [2] and in assay [3] was greater than 100 µM in each case.
As to `COc1cc([N+](=O)[O-])c(OC)cc1-c1nc2sc(C)nn2c1/C=N\NC(=N)N`, the inhibition result in assay [1] was “inactive”. The IC50 is greater than 20 µM in assay [2] and greater than 100 µM in assay [3].
With `COc1cc([N+](=O)[O-])c(OC)cc1-c1cn2ccccc2n1`, the inhibition entry in assay [1] was “inactive”.
On the same count and under the same terms, to `O=Cc1c(-c2c(F)cccc2F)nc2sccn12` belongs “inactive”; to `O=Cc1c(-c2cc(Cl)sc2Cl)nc2sc3ccccc3n12`, “inactive”.
In the case of `Cc1nn2c(/C=N/NC(=N)N)c(-c3cc(Cl)sc3Cl)nc2s1`, the inhibition result in assay [1] is “inactive”. Further, the IC50 in assay [2] is greater than 20 µM; in assay [3] it was greater than 100 µM.
As for `O=Cc1c(-c2cc(F)c(F)cc2F)nc2sccn12`, the inhibition entry in assay [1] is “inactive”.
Consider `N#Cc1ccc(-c2cn3cc(Cl)sc3n2)cc1`, for which the inhibition result in assay [1] is “inactive”.
For `Cc1cn2c(C=O)c(-c3ccc(F)c([N+](=O)[O-])c3)nc2s1`, the inhibition result in assay [1] was “inactive”.
The same measure, in the same setting: to `O=Cc1c(-c2ccc(F)c(F)c2)nc2sccn12` belongs “inactive”.
In the case of `N=C(N)N/N=C/c1c(-c2cc(Cl)sc2Cl)nc2ccccn12`, the inhibition result in assay [1] was “inactive”. The IC50 is greater than 20 µM in assay [2] and greater than 100 µM in assay [3].
For `N=C(N)N/N=C\c1c(-c2ccccc2)nc2sc(N)nn12`, the inhibition entry in assay [1] is “inactive”.
As to `Clc1cc(-c2nc3sc(Cl)cn3c2/C=N/NC2=NCCN2)c(Cl)s1`, in assay [1], the inhibition result is “inactive”. Besides, the figures for the IC50 in assay [2] and in assay [3] were greater than 20 µM and greater than 100 µM, respectively.
The corresponding values for `Clc1cc(-c2nc3ccccn3c2/C=N/NC2=NCCN2)c(Cl)s1` are “inactive”, greater than 20 µM and greater than 100 µM.
With `Cc1cn2cc(-c3ccc(F)c([N+](=O)[O-])c3)nc2s1`, the inhibition entry in assay [1] was “inactive”.
Still for that read-out and setting: to `O=Cc1c(-c2ccc(F)cc2)nc2sccn12` belongs “inactive”; to `Fc1ccc(-c2cn3cc(Cl)sc3n2)cc1`, “inactive”.
Same read-out and setting: to `O=Cc1c(-c2ccc(F)c([N+](=O)[O-])c2)nc2sc(Cl)cn12` belongs “inactive”; to `O=[N+]([O-])c1ccc(-c2cn3cc(Br)sc3n2)cc1`, “inactive”.
As to `Fc1cc(F)c(-c2cn3ccsc3n2)cc1F`, the inhibition result in assay [1] was “inactive”.
On to `Cc1nn2c(/C=N/NC(=N)N)c(-c3ccc(Cl)c([N+](=O)[O-])c3)nc2s1`, for which the figures for the IC50 in assay [2] and in assay [3] were 78 µM and 94 µM, respectively.
Consider `O=Cc1c(-c2cccc([N+](=O)[O-])c2F)nc2sccn12`, for which the inhibition result in assay [1] is “inactive”.
As for `N=C(N)N/N=C\c1c(-c2cccc(C(F)(F)F)c2)nc2sccn12`, the inhibition result in assay [1] was “inactive”. In addition, the IC50 in assay [2] and in assay [3] was greater than 100 µM each time.
As to `O=Cc1c(-c2ccc(Br)c([N+](=O)[O-])c2)nc2sccn12`, the inhibition result in assay [1] is “inactive”.
The same measure, in the same setting: to `O=[N+]([O-])c1ccc(-c2cn3cc(F)sc3n2)cc1` belongs “inactive”; to `COc1cc([N+](=O)[O-])c(OC)cc1-c1nc2sc(C)nn2c1C=O`, “inactive”.
